Experimental data from patent US20060275744A1, “Modified human embryonic stem cells and methods of use to treat neuron-associated disorders” (THE TRUSTEES OF COLUMBIA UNIVERSITY IN THE CITY OF NEW YORK, priority 2004, published 2006).

Assays:
[1] = system: DJ-1 deficient dopamine neurons; assay: 6-OHDA exposure of ES-derived dopamine neuron cultures, dopamine uptake assay; assay type: cell-based, murine; conditions: cultures at 9 DIV, 72 hours exposure
Source text: FIG. 14. DJ-1 Deficient ES Cultures Display Reduced Dopamine Neuron Production. (A) The SDIA coculture method. ES cells are cocultured with mouse stromal cells (MS5) in the absence of serum and LIF for 18 days in vitro (DIV). (B) Dopamine neuron production was quantified at 18 DIV by [^3H] dopamine uptake assay. DJ-1 deficient ES cultures were defective relative to heterozygous control cultures. (C-D) Neuron production was quantified by immunohistochemical analysis as a percent of Tuj1-positive colonies that express tyrosine hydroxylase (TH) or GAB A. Quantification of TH and GABA immunostaining was performed on all colonies in each of three independent wells. Colonies were scored as positive if any immunostained cells were present. […] (F) Kinetic analysis of dopamine neuron differentiation in DJ-1 deficient cultures (clone 32, solid square) and heterozygous controls (open circle) as quantified by dopamine uptake assay. […] Dopamine neurons were quantified by dopamine uptake assay. Data represent the means±SEM and were analyzed by ANOVA followed by Fisher's post-hoc test. *, p≦0.05.
To investigate the role of DJ-1 in the oxidative stress response in vivo, DJ-1-deficient homozygous mutant (‘knockout’) cells and DJ-1 heterozygote (‘control’) ES cell clones were analyzed for cell viability in the context of increasing concentrations of H2O2. […]

DJ-1 deficient ES cells = assay: Toxin exposure of DJ-1 deficient versus heterozygous ES cells (MTT, Annexin V/PI FACS, PARP, DHR, protein carbonyls); assay type: cell-based, murine; conditions: for sensitivity of DJ-1 deficient cells to toxin relative to heterozygous cells (cell viability, MTT): 15 hours exposure
Method: We generated cells deficient in DJ-1. cDNA for DJ-1 was PCR amplified from human liver cDNA (Clontech) and cloned into the expression vectors pET-28a (Novagen) or pcDNA3.1 (Invitrogen) using standard techniques. Flag-DJ-1 and all described mutants were generated by PCR-mediated mutagenesis. For protein carbonyl quantization (Bian et al. 2003), cells were plated (1.4×10^5 cells per well), grown for 24 hours, and then treated with 10 mM H2O2 as indicated. Cleared lysate ([…]) from each time point was added to 2 M HCl ([…]) with or without 10 mM DNPH and incubated for 1 h at 24° C. with shaking. Proteins were then TCA precipitated and resuspended in […] 6M Guanidinium Chloride. Absorbance was measured at 360 nm, and DNP-conjugated samples were normalized for protein concentration with the underivitized control samples. Undifferentiated ES cells were cultured using standard techniques (Abeliovich et al. 2000). SDIA differentiation of ES cultures was performed as described (Kawasaki et al. 2000) except that ES cells were plated at a density of 500 cells/cm^2 and cocultured with the MS5 mouse stromal cell line (Barberi et al. 2003). Transfections were performed using Lipofectamine 2000 (Life Technologies) for 18-36 hours as per the manufacturer's instructions (Staropoli et al. 2003). Primary cultures and infections were performed as described (Staropoli et al. 2003). A murine embryonic stem (ES) cell clone, F063A04, that harbors a retroviral insertion at the DJ-1 locus was obtained through the German Gene Trap Consortium (http://tikus.gsf.de) (Floss and Wurst 2002). The pT1ATGβgeo gene trap vector is present between exons 6 and 7 of the murine DJ-1 gene, as determined by cDNA sequencing of trapped transcripts and genomic analysis (FIG. 12A). This integration is predicted to disrupt the normal splicing of DJ-1, leading to the generation of a truncated protein that lacks the carboxy-terminal domain required for dimerization and stability. Of note, a mutation that encodes a similarly truncated protein (at the human DJ-1 exon 7 splice acceptor) has been described in a patient with early-onset PD (Hague et al. 2003).
To investigate the role of DJ-1 in the oxidative stress response in vivo, DJ-1-deficient homozygous mutant (‘knockout’) cells and DJ-1 heterozygote (‘control’) ES cell clones were analyzed for cell viability in the context of increasing concentrations of H2O2. ES cells plated in 96-well format (2.3×10^4 cells/well) were treated for 15 hours with H2O2 in ES media deficient in b-mercaptoethanol (Abeliovich et al. 2000). Cell viability (as a percent of untreated control) was determined by MTT assay in triplicate (Fezoui et al. 2000). Annexin V/Propidium Iodide (Molecular probes) staining was performed per the manufacturer's instructions. For dihydrorhodamine-123 staining (DHR, Molecular probes) (Walrand et al. 2003), cells were preincubated for 30 min with DHR ([…]), washed with PBS, then treated with H2O2 in ES media deficient in b-mercaptoethanol for 15 min at 37° C. The FACS analysis was performed using a FACSTAR sorter (Becton Dickinson). Dopamine uptake assays were performed essentially as described in Farrer et al. 1998. Reported values represent specific uptake from which non-specific uptake, determined in the presence of mazindol, was subtracted, and normalized for protein content (BCA kit, Pierce).
Heterozygous cells were used as controls because the ‘knockout’ subclones were derived from these. Cell viability was initially determined by MTT assay in triplicate (Fezoui et al. 2000). […] The increase in AV-positive cells implicated an apoptotic mechanism of cell death (FIG. 12F).
We quantified the accumulation of ROS in response to H2O2 treatment in mutant and heterozygous control cells using the ROS-sensitive fluorescent indicator dye dihydrorhodamine-123 (DHR) and FACS analysis. […]

DY1 ES cells = assay: Candidate soluble factors in EB or SDIA differentiation of DY1 ES cells; assay type: cell-based, mouse; conditions: for eYFP fluorescence or DAT immunoreactivity: factors added at stages 4-5 of differentiation
Method: FIG. 11. Effect of different soluble factors on the differentiation of DY1 into dopamine neurons with the EB method. (A) eYFP fluorescence or (B) DAT immunoreactivity was quantified by fluorescent confocal microscopy, see text for details. Data represent the mean±SEM. All results were analyzed by ANOVA. The level of significance is indicated where * p≦0.05 and ** p≦0.005.
We used marked ES-derived ‘late’ dopamine neurons to analyze candidate soluble and cell-associated factors in the differentiation process. […] Briefly, DY1 ES cells were differentiated using EB or SDIA and candidate factors were added to the standard differentiation protocol at stages 4-5 of differentiation (Lee et al., 2000).
We have tested additional candidate factors that are implicated in the differentiation of dopamine neurons and other CNS neuron classes. For instance, the Notch pathway plays an inhibitory role in early neuronal fate determination in uncommitted proliferative cells including neuronal stem cells (Bixby et al., 2002), as well as inhibitory roles in later events such as neurite outgrowth (Berezovska et al., 1999) in hippocampal cells. […] Another multifunctional factor in the early and late determination of neurons is neuregulin, which inhibits neurogenesis early but subsequently plays a role promoting synapse formation at certain CNS and PNS synapses (Buonanno and Fischbach, 2001). Neuregulin1-β1 appears to have increased the propensity of ES cultures to differentiate into DAT-positive cells.

Nurr1 + PitX3 = Nurr1 + PitX3 (Homo sapiens, UniProt P43354;O75364 P43354:1-598,O75364:1-302); assay: EMSA; cooperative binding of Nurr1 and PitX3; conditions: tags: reticulocyte lysate; also nuclear extracts of EB-differentiated ES cultures; annealed oligonucleotides with overhangs
Method: Electrophoretic mobility shift assays (EMSA) were performed using an EMSA kit (Novagen) as per the manufacturer's instructions with annealed oligonucleotides for wild-type human DAT promoter sequences (5′-GTCTACTGGATAAGAGCCCGAGGCCGAGGCTGAGACCG-3′ (SEQ ID NO:14) and 5′-CTCAGCCTCGGCCTCGGGCTCTTATCCAGTAGACAGGGT-3′ (SEQ ID NO:15)) or mutant human DAT promoter sequences (5′-GTCTACTGGATGGGAGCCCGATTCCGAGGCTGAGACCG-3′ (SEQ ID NO:16) and 5′-CTCAGCCTCGGAATCGGGCTCCCATCCAGTAGACAGGGT-3′ (SEQ ID NO:17)).

MM13 cells = assay: GDNF and BDNF treatment of virally transduced MM13 cells, real-time rtPCR; assay type: cell-based, murine; conditions: 10 ng/ml during EB stage 4
Method: FIG. 23. PitX3 and Nurr1 coordinately regulate extrinsic factor signaling pathways in EB-differentiated ES cultures. […] (B) PitX3 and Nurr1 co-overexpression expands cells that are sensitive to BDNF and GDNF treatment as quantified by rtPCR for the late marker DAT but not the early marker TH. […] Virally transduced MM13 cells were treated with GDNF and BDNF (both 10 ng/ml, from R&D system) during EB stage 4; real-time rtPCR levels are presented as a percentage of the value obtained double (Nurr1 and PitX3) transduction after normalization with β-actin.

Molecule: NCCc1cc(O)c(O)cc1O [6-OHDA, 6-hydroxydopamine]
- sensitivity of DJ-1 deficient dopamine neurons to oxidative stress (dopamine uptake assay) [1]: increased sensitivity

Molecule: OO [H2O2, hydrogen peroxide]
- accumulation of protein carbonyls (DJ-1 deficient ES cells): normal
- protein carbonyl accumulation (DJ-1 deficient ES cells): robustly increased
- initial ROS accumulation (DHR, FACS) (DJ-1 deficient ES cells; 15 minutes after stimulation, DJ-1 deficient versus heterozygous cells): unaltered
- sensitivity of DJ-1 deficient cells to toxin relative to heterozygous cells (cell viability, MTT) (DJ-1 deficient ES cells): significantly greater toxicity in DJ-1 deficient cells
- cleavage of Poly(ADP-ribose)polymerase-1 (PARP) (DJ-1 deficient ES cells; knockout cells): potentiated cleavage
- cell death, Annexin V and propidium iodide FACS (DJ-1 deficient ES cells; knockout relative to heterozygous cells): increased cell death of knockout cells

Molecule: [Cl][Cu][Cl] [copper, CuCl2]
- sensitivity of DJ-1 deficient cells to toxin relative to heterozygous cells (cell viability, MTT) (DJ-1 deficient ES cells): sensitized

Molecule: C[C@@H]1C[C@@H]([C@H](O)CC2CC(=O)NC(=O)C2)C(=O)[C@@H](C)C1 [cycloheximide]
- sensitivity of DJ-1 deficient cells to toxin relative to heterozygous cells (cell viability, MTT) (DJ-1 deficient ES cells): did not observe altered sensitivity

Molecule: CC(=O)N[C@@H](CSC(=O)[C@]1([C@@H](O)C(C)C)NC(=O)[C@H](C)[C@@H]1O)C(=O)O [lactacystin]
- sensitivity of DJ-1 deficient cells to toxin relative to heterozygous cells (cell viability, MTT) (DJ-1 deficient ES cells): sensitized

Molecule: CN[C@@H]1C[C@H]2O[C@@](C)([C@@H]1OC)n1c3ccccc3c3c4c(c5c6ccccc6n2c5c31)C(=O)NC4 [staurosporine]
- sensitivity of DJ-1 deficient cells to toxin relative to heterozygous cells (cell viability, MTT) (DJ-1 deficient ES cells): did not observe altered sensitivity

Molecule: Jagged: soluble receptor Jagged (R&D Systems) protein used to inhibit Notch signaling
- terminally differentiated dopamine neurons (DY1 ES cells; inhibiting Notch signaling with soluble protein): significant increase

Molecule: Sonic Hedgehog
- eYFP fluorescence or DAT immunoreactivity (DY1 ES cells): significant increase

Molecule: tunicamycin
- sensitivity of DJ-1 deficient cells to toxin relative to heterozygous cells (cell viability, MTT) (DJ-1 deficient ES cells): did not observe altered sensitivity

B1: human DAT promoter wild-type EMSA oligo (dsDNA)
DNA 1: GTCTACTGGATAAGAGCCCGAGGCCGAGGCTGAGACCG
DNA 2: CTCAGCCTCGGCCTCGGGCTCTTATCCAGTAGACAGGGT
- binding result (Nurr1 + PitX3): binds

B2: BDNF: brain-derived neurotrophic factor, from R&D system (protein, UniProt P23560 19-247, looked up)
Neurotrophic factor BDNF …: APMKEANIRGQGGLAYPGVRTHGTLESVNGPKAGSRGLTSLADTFEHVIEELLDEDQKVRPNEENNKDADLYTSRVMLSSQVPLEPPLLFLLEEYKNYLDAANMSMRVRRHSDPARRGELSVCDSISEWVTAADKKTAVDMSGGTVTVLEKVPVSKGQLKQYFYETKCNPMGYTKEGCRGIDKRHWNSQCRTTQSYVRALTMDSKKRIGWRFIRIDTSCVCTLTIKRGR
- expression of Nurr1 and PitX3 (MM13 cells): fails to induce

B3: FGF-8: fibroblast growth factor-8, candidate soluble factor added to ES differentiation (protein, UniProt P55075 23-233, looked up)
Fibroblast growth factor 8: QEGPGRGPALGRELASLFRAGREPQGVSQQHVREQSLVTDQLSRRLIRTYQLYSRTSGKHVQVLANKRINAMAEDGDPFAKLIVETDTFGSRVRVRGAETGLYICMNKKGKLIAKSNGKGKDCVFTEIVLENNYTALQNAKYEGWYMAFTRKGRPRKGSKTRQHQREVHFMKRLPRGHHTTEQSLRFEFLNYPPFTRSLRGSQRTWAPEPR
- eYFP fluorescence or DAT immunoreactivity (DY1 ES cells): significant increase

B4: GDNF: glial cell-line-derived neurotrophic factor, from R&D system (protein, UniProt P39905 78-211, looked up)
Glial cell line-derived …: SPDKQMAVLPRRERNRQAAAANPENSRGKGRRGQRGKNRGCVLTAIHLNVTDLGLGYETKEELIFRYCSGSCDAAETTYDKILKNLSRNRRLVSDKVGQACCRPIAFDDDLSFLDDNLVYHILRKHSAKRCGCI
- expression of Nurr1 and PitX3 (MM13 cells): fails to induce
